We go through three compounds from patent publication US5132291A, “Antivirals and methods for increasing the antiviral activity of AZT” (priority 1989, dated 1992).

Where two headings read alike, the source gives them in different places.

For one series, the system named is SAH hydrolase. Kind of series: SAH hydrolase inhibition. In kind it is biochemical. The procedure: The effect of incubation time and AICA riboside concentration on SAH hydrolase activity was determined as follows. Five samples of SAH hydrolase were incubated at the following AICA riboside concentrations: 0, 10, 25, 50 and 100 μM. The incubation buffer consisted of 25 mM potassium phosphate pH 7.0, 1 mM EDTA, 1 mM, DTT and 0.04% BSA. The total enzyme added to incubation mixture was 10 μg. At indicated times, 10 μl of sample was withdrawn and assayed in the following assay system: 25 mM potassium phosphate, pH 7.0, 40 mM DL-Homocysteine, 1 mM EDTA, 1 mM DTT, 10 μM EHNA, 0.1% BSA and 10 μM U-^14 C Adenosine (590 m Ci/mmole). The reaction was stopped by adding 15 μl of 30% TCA. The samples were then centrifuged and 15 μl were removed and applied to Kodak cellulose 13254 TLC plates along with SAH and adenosine markers. The plates were then developed in a solvent system of 1-butanol:methanol:H2 O:ammonium hydroxide (60:20:20:2). The adenosine and S-adenosyl homocysteine were visualized under UV light and the spots were cut from the plate. Radioactivity of the spots was determined by liquid scintillation spectrometry. From a plot of the reciprocal of Kinactivation vs. 1/AICA riboside concentration the values of Ki (X-intercept) and Kmax (Y-intercept), were determined (FIG. 10(b)).

The test system of series [1] is N2 virus (replication-defective murine leukemia virus construct). Kind of series: N2 colony resistance assay on 208F rat fibroblasts. In kind it is cell-based. Conditions: 0.01 μM AZT compared with 500 μM AICA riboside. From the text: As described in Example Two, several retroviral assay systems were utilized to test the antiviral activity of various purine nucleoside compounds. One assay system employed a replication-defective murine leukemia virus construct "N2") containing a selectable marker (the neomycin resistance gene). The N2 virus construct is present in the producer or "helper" cell line also called N2 which contains a second retroviral construct that encodes for the production of the retrovirus proteins necessary for packaging and which can, therefore, psuedotype the N2 vector into an infective amphotrophic murine retrovirus. […]
(§1) In this colony-forming bioassay for the characterization of antiviral compounds against retroviruses, a replication-defective retroviral vector construct having the ability to confer neomycin-resistance (U937/BAG or N2) is psuedotyped, infects a single cell, and under neomycin selection, allows the recipient cell to form a colony. Since each infection yields a neomycin-resistant cell capable of producing a discrete group of cells, colonies can be counted, resulting in a linear relationship between the number of colonies and the first order of virus concentration. […]
Neomycin selection (500 μg/ml) was begun the next day and continued for eight days post-infection, changing the media three times per week. […] All colonies with 50 or more aggregate cells were counted.

For series [2], the system named is BAG vector pseudotyped by MA (amphotrophic murine leukemia virus). Kind of series: U937/BAG+MA colony resistance assay titered on 208F rat fibroblasts. It counts as cell-based. The settings on record: 0.01 μM AZT. The procedure:
A second, similar assay system was utilized in which a human macrophage line (U937) carrying the BAG retroviral vector construct (having neomycin resistance and beta-galactosidase marker genes), Cepko, PNAS, Vol. 84, p. 156-160 (1987), was infected with MA (amphotrophic MLV [murine leukemia virus]). MA was used to pseudotype the replication-defective BAG vector, which was then titered on 208F cells. According to this assay, the results of which are shown in FIG. 1c, 0.01 μM AZT and 500 μM AICA riboside were both effective against murine retroviruses. […]
as §1
After drying, the plates were stained with 2 ml of 1:20 Glemsa (Sigma) for 1 hour. […] All colonies containing 50 or more cells were scored.

Series [3] has as its system peripheral blood macrophages. The settings on record: cited from earlier work.
Another series deals with HIV-1. Kind of series: HIV syncitial forming assay using CEM-SS cells. In kind it is cell-based. The settings on record: AZT 0.01 μM and 0.1 μM, 24 hour preincubation before HIV infection. From the text:
The following cytomorphologic infectivity bioassay was used to characterize antiviral activity against HIV-1. In the following assay a single infectious unit of virus infects a single cell and initiates a focal expression of that infection, i.e., a syncitium. Since a single infectious unit leads to a discrete response, a linear relationship exists between the number of virally-induced cytopathic effects and the first order of virus concentration. Application of this procedure in assays for virus inactivation allows for evaluation of the candidate antiviral agent.
CEM-SS (syncitium-sensitive Leu 3a-positive CEM cell line) cells were grown in RPMI 1640 cell culture media (Irvine Scientific) supplemented with 10% heat-inactivated fetal bovine serum (Gemini Bioproducts) and 1% […] glutamine (Gibco). Log-phase cells were split 1:2 with the growth medium the day prior to setting up the assay to standardize plating conditions and to assure a population of logarithmically growing cells. Ninety-six-well plates (Costar) were pretreated with 50 μl of 50 μg/ml poly-1-lysine (MW=295,000 Sigma) "PLL") and were left at room temperature for 60 minutes. Residual PLL was removed with two washes of PBS. The plates were stored in the incubator until used.
On the day of the assay, the cells were counted and enough cells were harvested to plate each well with 5.0×10^4 cells per well in a volume of 200 μl (or 20 ml of […] was appropriate for each 96-well microtitre plate).
The cells were plated out on the PLL pre-treated microtitre plates at 5.0×10^4 cells/well in a volume of 200 μl. After allowing attachment for 30 minutes at 37° C. and 5% CO2, the antiviral agent(s) were added in the noted amounts and the treated plates were pre-incubated for 24 hours.
The HIV-1 virus stock (isolated from infected H-9 cells) was diluted in growth medium to yield 100 SFU (syncytial-forming units) per well. Diluted HIV-1 virus, 20 μl, was added to appropriate wells. All the plates were then incubated for 5 days at 37° C. and 5% CO2. On day 5 post-infection, the cells were given a 100 μl media change. […]

The subject of another series is HIV. Kind of series: HIV syncitial forming assay using SupT-1 cells. It counts as cell-based. The procedure:
The assay was performed following the procedure described in Example Three except that SupT-1 cells were used. Using the SupT-1 cells, the medium was not changed at day 5 post-infection and the syncitia were counted at day 5 post-infection at 40X. The results are plotted in FIGS. 5, 6(b), and 7.

The conditions of series [4]: cited from earlier work.
Another series relates to AIDS virus. The settings on record: cited from earlier work.

For the compound `NC(=O)c1nc[nH]c1N` [AICA], the results for the “inhibition of SAH hydrolase” value with SAH hydrolase and in the series on SAH hydrolase (even at a concentration as low as 10 μM) were “very potent inhibitors” and “potent inhibitors”, respectively.

`Cc1cn([C@H]2C[C@H](N=[N+]=[N-])[C@@H](CO)O2)c(=O)[nH]c1=O` [AZT, 3'azido-3'deoxythymidine]: the “antiviral activity (neomycin-resistant colonies)” value in series [1] is on record as “somewhat better antiviral activity than 500 μM AICA riboside”. For the same compound, in series [2], the “effectiveness against murine retroviruses” value was “effective”. In addition, in series [3], the “accumulation of AZT nucleotides in macrophages as compared to CEM” value is recorded as “nine-fold lower”. Further, the “antiviral effect (number of syncitia)” value with HIV-1 is listed as “antiviral effects”. The “effectiveness against the AIDS virus (prevention of syncitial formation)” value with HIV (AZT 0.01 μM-1 μM, 7200 min) is listed as “less than 100%”. The inhibition at 10 µM in the series with HIV (Human immunodeficiency virus 1, SUP-T1, 120 h, read-out: effectiveness against the AIDS virus (prevention of syncitial formation)) is 100%. The “patients with macrocytic anemia” value in series [4] (CD4 (T4) lymphocyte count ≤200/mm^3) is reported as “up to 45%”. Besides, the patients with granulocytopenia result in series [4] (CD4 count >200/mm^3) was “up to 40%”; in series [4] (CD4 count ≤200/mm^3), “up to 55%”.

For the compound `NC(=O)c1ncn([C@@H]2O[C@H](CO)[C@@H](O)[C@H]2O)n1` [ribavirin], the “decrease of phosphorylation of AZT to the mono-, di-, and triphosphate forms” value in the series on AIDS virus (AIDS infected and uninfected cells) is “approximately a factor of ten”. Moreover, the “effect on effectiveness of AZT against the AIDS virus” value in the series on AIDS virus (peripheral blood lymphocytes and H9 cells) is on record as “reduced the effectiveness of AZT”.
